Tests used:
Test in all cases: NCI one-dose assay
Type in all cases: cell-based
OVCAR-8 = details: Homo sapiens, OVCAR-8, Ovarian cancer, read-out: Cell growth inhibition %
Method: (§1) The National Cancer Institute (NCI), Bethesda, USA, selected the final compounds 6a–j and 7a–j for in vitro anticancer screening. An initial in vitro single-dose anticancer experiment was performed with the entire NCI 60 cell lines derived from nine tumor subpanel cancer cell lines. The results for each compound were illustrated as a mean graph showing the percentage growth of treated cells compared to untreated control cells (see Supplementary Materials).
(§2) The NCI anticancer screening process has been thoroughly detailed. The Drug Evaluation Branch of the National Cancer Institute in Bethesda, […], USA, established the procedure and conducted the anticancer assay on 60 human tumor cell lines from nine neoplastic cancers.

MDA-MB-468 = details: Homo sapiens, MDA-MB-468, Breast cancer, read-out: Cell growth inhibition %
Method: as §1, §2

MDA-MB-231/ATCC = details: Homo sapiens, Breast cancer, read-out: Cell growth inhibition %
Method: as §1, §2

HCT-15 = details: Homo sapiens, HCT-15, Colon cancer, read-out: Cell growth inhibition %
Method: as §1, §2

SNB-75 = details: Homo sapiens, SNB-75, CNS cancer, read-out: Cell growth inhibition %
Method: as §1, §2

SK-MEL-5 = details: Homo sapiens, SK-MEL-5, Melanoma, read-out: Cell growth inhibition %
Method: as §1, §2

BT-549 = details: Homo sapiens, BT-549, Breast cancer, read-out: Cell growth inhibition %
Method: as §1, §2

NCI-H322M = details: Homo sapiens, Non-small cell lung cancer, read-out: Cell growth inhibition %
Method: as §1, §2

HL-60(TB) = details: Homo sapiens, Leukemia, read-out: Cell growth inhibition %
Method: as §1, §2

CAKI-1 = details: Homo sapiens, CAKI-1, Renal cancer, read-out: Cell growth inhibition %
Method: as §1, §2

KM12 = details: Homo sapiens, KM12, Colon cancer, read-out: Cell growth inhibition %
Method: as §1, §2

UACC-257 = details: Homo sapiens, UACC-257, Melanoma, read-out: Cell growth inhibition %
Method: as §1, §2

TK-10 = details: Homo sapiens, TK-10, Renal cancer, read-out: Cell growth inhibition %
Method: as §1, §2

SW-620 = details: Homo sapiens, SW-620, Colon cancer, read-out: Cell growth inhibition %
Method: as §1, §2

NCI-H460 = details: Homo sapiens, NCI-H460, Non-small cell lung cancer, read-out: Cell growth inhibition %
Method: as §1, §2

PC-3 = details: Homo sapiens, PC-3, Prostate cancer, read-out: Cell growth inhibition %
Method: as §1, §2

ACHN = details: Homo sapiens, Renal cancer, read-out: Cell growth inhibition %
Method: as §1, §2

HCT-116 = details: Homo sapiens, HCT-116, Colon cancer, read-out: Cell growth inhibition %
Method: as §1, §2

OVCAR-4 = details: Homo sapiens, OVCAR-4, Ovarian cancer, read-out: Cell growth inhibition %
Method: as §1, §2

HT29 = details: Homo sapiens, HT-29, HT29, Colon cancer, read-out: Cell growth inhibition %
Method: as §1, §2

DU-145 = details: Homo sapiens, DU-145, Prostate cancer, read-out: Cell growth inhibition %
Method: as §1, §2

NCI/ADR-RES = details: Homo sapiens, Ovarian cancer, read-out: Cell growth inhibition %
Method: as §1, §2

CCRF-CEM = details: Homo sapiens, Leukemia, read-out: Cell growth inhibition %
Method: as §1, §2

OVCAR-5 = details: Homo sapiens, OVCAR-5, Ovarian cancer, read-out: Cell growth inhibition %
Method: as §1, §2

COLO 205 = details: Homo sapiens, COLO 205, Colon cancer, read-out: Cell growth inhibition %
Method: as §1, §2

M14 = details: Homo sapiens, M14, Melanoma, read-out: Cell growth inhibition %
Method: as §1, §2

SK-OV-3 = details: Homo sapiens, SK-OV-3, Ovarian cancer, read-out: Cell growth inhibition %
Method: as §1, §2

HCC-2998 = details: Homo sapiens, HCC-2998, Colon cancer, read-out: Cell growth inhibition %
Method: as §1, §2

NCI-H23 = details: Homo sapiens, NCI-H23, Non-small cell lung cancer, read-out: Cell growth inhibition %
Method: as §1, §2

K-562 = details: Homo sapiens, K562, K-562, Leukemia, read-out: Cell growth inhibition %
Method: as §1, §2

UACC-62 = details: Homo sapiens, UACC-62, Melanoma, read-out: Cell growth inhibition %
Method: as §1, §2

SN12C = details: Homo sapiens, Renal cancer, read-out: Cell growth inhibition %
Method: as §1, §2

MOLT-4 = details: Homo sapiens, MOLT-4, Leukemia, read-out: Cell growth inhibition %
Method: as §1, §2

RPMI-8226 = details: Homo sapiens, RPMI-8226, Leukemia, read-out: Cell growth inhibition %
Method: as §1, §2

SK-MEL-2 = details: Homo sapiens, SK-MEL-2, Melanoma, read-out: Cell growth inhibition %
Method: as §1, §2

MALME-3M = details: Homo sapiens, Melanoma, read-out: Cell growth inhibition %
Method: as §1, §2

Row | Structure (SMILES) | inhibition at 10 µM (OVCAR-8) [%] | inhibition at 10 µM (MDA-MB-468) [%] | inhibition at 10 µM (MDA-MB-231/ATCC) [%] | inhibition at 10 µM (HCT-15) [%] | inhibition at 10 µM (SNB-75) [%] | inhibition at 10 µM (SK-MEL-5) [%] | inhibition at 10 µM (BT-549) [%] | inhibition at 10 µM (NCI-H322M) [%] | inhibition at 10 µM (HL-60(TB)) [%] | inhibition at 10 µM (CAKI-1) [%] | inhibition at 10 µM (KM12) [%] | inhibition at 10 µM (UACC-257) [%] | inhibition at 10 µM (TK-10) [%] | inhibition at 10 µM (SW-620) [%] | inhibition at 10 µM (NCI-H460) [%] | inhibition at 10 µM (PC-3) [%] | inhibition at 10 µM (ACHN) [%] | inhibition at 10 µM (HCT-116) [%] | inhibition at 10 µM (OVCAR-4) [%] | inhibition at 10 µM (HT29) [%] | also measured
1 | C=CCn1c(SCC(=O)c2ccc(C)cc2)nnc1-c1c[nH]c2ccccc12 [Compound 6c, 2-((4-allyl-5-(1H-indol-3-yl)-4H-1,2,4-triazol-3-yl)thio)-1-(p-tolyl)ethanone] | 10.4 | 12.5 | 11.5 | 6.36 | -4.77 | 6.71 | 2.35 | 0.83 | 10.4 | 15.1 | -6.02 | 6.7 | -39.1 | -0.34 | 1.59 | 22.2 | 11 | 9.79 | -10.4 | -6.98 | inhibition at 10 µM (DU-145): -8.9%; inhibition at 10 µM (NCI/ADR-RES): 4.65%; inhibition at 10 µM (CCRF-CEM): 9.66%; inhibition at 10 µM (OVCAR-5): -2.57%; inhibition at 10 µM (COLO 205): -25.9%; inhibition at 10 µM (M14): 4.78%; inhibition at 10 µM (SK-OV-3): -22.4%; inhibition at 10 µM (HCC-2998): -7.01%; inhibition at 10 µM (NCI-H23): -5.98%; inhibition at 10 µM (K-562): 12.8%; inhibition at 10 µM (UACC-62): 24.7%; inhibition at 10 µM (SN12C): 5.47%; inhibition at 10 µM (MOLT-4): 9.13%; inhibition at 10 µM (RPMI-8226): 13.8%; inhibition at 10 µM (SK-MEL-2): 1.54%; inhibition at 10 µM (MALME-3M): 10.5%
2 | C=CCn1c(SCC(=O)c2ccc(Br)cc2)nnc1-c1c[nH]c2ccccc12 [Compound 6d, 2-((4-Allyl-5-(1H-indol-3-yl)-4H-1,2,4-triazol-3-yl)thio)-1-(4-bromophenyl)ethenone] | 5.3 | 13.1 | 3.15 | 0.98 | -6.14 | 4.07 | -5.98 | 0.55 | 7.71 | 9.77 | -2.46 | -7.6 | -34.3 | -10.2 | -6.13 | 21.7 | 11.7 | 6.53 | -8.69 | -4.18 | inhibition at 10 µM (DU-145): -6.19%; inhibition at 10 µM (NCI/ADR-RES): 1.17%; inhibition at 10 µM (CCRF-CEM): 2.08%; inhibition at 10 µM (OVCAR-5): 3.19%; inhibition at 10 µM (COLO 205): -7.53%; inhibition at 10 µM (M14): 2.64%; inhibition at 10 µM (SK-OV-3): -13.1%; inhibition at 10 µM (HCC-2998): -4.47%; inhibition at 10 µM (NCI-H23): 4.98%; inhibition at 10 µM (K-562): 14.5%; inhibition at 10 µM (UACC-62): 16.9%; inhibition at 10 µM (SN12C): 4.39%; inhibition at 10 µM (MOLT-4): 8.82%; inhibition at 10 µM (RPMI-8226): 1.17%; inhibition at 10 µM (SK-MEL-2): -15.3%; inhibition at 10 µM (MALME-3M): 9.34%

From PMC11859928, “Design, Synthesis, and Antiproliferative Activity of Novel Indole/1,2,4-Triazole Hybrids as Tubulin Polymerization Inhibitors” (Pharmaceuticals, 2025)
